Source: patent US8673929B2, “4,6-di- and 2,4,6-trisubstituted quinazoline derivatives and pharmaceutical compositions useful for treating viral infections” (priority 2006, dated 2014)

Experiments:
HCV replicon = experiment: Anti-HCV replicon assay, EC50 (luciferase readout); type: cell-based; conditions: Hepatitis C virus, 72 h; Huh-7 HCV replicon cells, 3 days incubation, luciferase luminescence
Method: (§1) The anti HCV activity of the quinazoline derivatives of this invention was tested in a human hepatoma Huh-7 cell line harbouring a HCV replicon. The assay comprised the following steps:
(§2) Step 1: compound preparation and serial dilution • 1. for water soluble quinazoline derivatives, a volume of 500 μL of solution in cell media (DMEM, 10% FBS, P/S, L-Glutamine) was prepared with a concentration being twice the concentration of the starting final serial dilution concentration. A volume of 150 μL of the solution was added to the pre-specified wells in column 1 of a 96-well cell culture plate (PerkinElmer, white plate, cat. #6005181, for EC50 assay; black plate, cat. #6005182 for CC50 assay). The rest of the plate, columns 2-12, was filled with 100 μL of cell media. The plate was then placed on a Precision 2000 Workstation to start the serial dilution. Compounds were diluted three times each step from column 1 to column 10. Column 11 was used as a blank control (no compound added). • 2. for quinazoline derivatives requiring DMSO to dissolve, serial dilution is performed in 50% DMSO in a 384-well plate. A solution containing a compound at 100-fold concentration of the starting final serial dilution concentration was prepared in 50% DMSO and added to the pre-specified wells in column 1 of a polypropylene 384-well plate. The plate was then placed on a Precision 2000 Workstation to start the serial dilution. After the serial dilution, a volume of 2 μL of the solution was transferred from the 384-well plate to a 96-well cell culture plate containing 100 μL of cell media on a Biomek FX Workstation. The DMSO concentration in the final assay condition was 0.5% after cells are added to the plate and the total volume in each well is brought to 200 μL.
(§3) Step 2: to each well of the serial dilution plate prepared above, 100 μL of cell media containing 6000 suspended Huh-7 HCV replicon cells was added with a Multidrop workstation. The plates were incubated for 3 days at 37° C. with 5% CO2.
(§4) Step 3: detection: • a) for the EC50 assay, the media in a 96-well cell culture plate was aspirated with a Biotek EL405 plate-washer. A volume of 200 μL of a solution containing a 1:1 mixture of cell-lysis buffer (Promega, Luciferase Cell Culture Lysis 5× Reagent, cat. #E1531) and luciferase substrate solution (Promega, Luciferase Assay, cat.# E4550) was added to each well of the plate with Multidrop. The plate was incubated for 30 minutes at room temperature before the luminescence signal was measured with a TopCount plate-reader. • b) for the CC50 assay, a volume of 100 μL of pre-mixed CellTiter-Glo (Promega, cat.# G7572) solution is added directly to the cell culture in each well of the plate and the luminescence signal is measured with a TopCount plate-reader after 10 minutes of incubation at room temperature.
(§5) Results in the table below are expressed by the following data: • the 50% cytostatic concentration (CC50), i.e. the concentration that results in 50% inhibition of cell growth, and • the 50% effective concentration (EC50), i.e. the concentration that […].

[1] = CC50 assay in the anti-HCV replicon assay (CellTiter-Glo); type: cell-based, human; conditions: human, Huh-7 hepatoma cells harbouring an HCV replicon; Huh-7 HCV replicon cells, 3 days incubation, CellTiter-Glo luminescence
Method: as §1, §2, §3, §4, §5

COCCOc1nc(N)nc2ccc(-c3ccc(F)c(F)c3)cc12 [Example 62, 6-(3,4-Difluoro-phenyl)-4-(2-methoxy-ethoxy)-quinazolin-2-ylamine]
EC50 (HCV replicon): 1000 to 10000 nM
CC50 at 3 days [1]: 10 to 20 µM

COCCOc1nc(N)nc2ccc(-c3cccc(C#N)c3)cc12 [Example 63, 3-(2-Amino-4-(2-methoxy-ethoxy)-quinazolin-6-yl)-benzonitrile]
EC50 (HCV replicon): 1000 to 10000 nM
CC50 at 3 days [1]: > 20 µM

COCCOc1nc(N)nc2ccc(-c3cn[nH]c3)cc12 [Example 64, 4-(2-Methoxy-ethoxy)-6-(2H-pyrazol-4-yl)-quinazolin-2-ylamine]
EC50 (HCV replicon): 1000 to 10000 nM
CC50 at 3 days [1]: > 20 µM

COCCOc1nc(N)nc2ccc(-c3ccc(N)cc3)cc12 [Example 65, 6-(4-Amino-phenyl)-4-(2-methoxy-ethoxy)-quinazolin-2-ylamine]
EC50 (HCV replicon): 1000 to 10000 nM
CC50 at 3 days [1]: > 20 µM

COCCOc1nc(N)nc2ccc(-c3ccc(F)c(F)c3F)cc12 [Example 66, 4-(2-Methoxy-ethoxy)-6-(2,3,4-trifluoro-phenyl)-quinazolin-2-ylamine]
EC50 (HCV replicon): 1000 to 10000 nM
CC50 at 3 days [1]: > 20 µM

COCCOc1nc(N)nc2ccc(-c3ccc(F)cc3C)cc12 [Example 67, 6-(4-Fluoro-2-methyl-phenyl)-4-(2-methoxy-ethoxy)-quinazolin-2-ylamine]
EC50 (HCV replicon): 1000 to 10000 nM
CC50 at 3 days [1]: 10 to 20 µM

COCCOc1nc(N)nc2ccc(-c3ccc(O)cc3)cc12 [Example 68, 4-[2-Amino-4-(2-methoxy-ethoxy)-quinazolin-6-yl]-phenol]
EC50 (HCV replicon): 300 to 1000 nM
CC50 at 3 days [1]: 10 to 20 µM

COCCOc1nc(N)nc2ccc(-c3ccc(Cl)c(C(F)(F)F)c3)cc12 [Example 69, 6-(4-Chloro-3-trifluoromethyl-phenyl)-4-(2-methoxy-ethoxy)-quinazolin-2-ylamine]
EC50 (HCV replicon): 1000 to 10000 nM
CC50 at 3 days [1]: > 20 µM

Nc1nc(OCc2ccccc2)c2cc(-c3ccn[nH]3)ccc2n1 [Example 70, 4-Benzyloxy-6-(2H-pyrazol-3-yl)-quinazolin-2-ylamine]
EC50 (HCV replicon): 1000 to 10000 nM
CC50 at 3 days [1]: 10 to 20 µM

CNC(=O)c1ccc(-c2ccc3nc(N)nc(OCc4ccccc4)c3c2)cc1 [Example 71, 4-(2-Amino-4-benzyloxy-quinazolin-6-yl)-N-methyl-benzamide]
EC50 (HCV replicon): 300 to 1000 nM
CC50 at 3 days [1]: > 20 µM

Nc1nc(OCc2ccccc2)c2cc(-c3cn[nH]c3)ccc2n1 [Example 72, 4-benzyloxy-6-(1H-pyrazol-4-yl)-quinazolin-2-ylamine]
EC50 (HCV replicon): 1000 to 10000 nM
CC50 at 3 days [1]: > 20 µM

CN(C)CCOCCOc1nc(N)nc2ccc(-c3ccc(OC(F)(F)F)cc3)cc12 [Example 73, 4-[2-(2-Dimethylamino-ethoxy)-ethoxy]-6-(4-trifluoromethoxy-phenyl)-quinazolin-2-ylamine]
EC50 (HCV replicon): 1000 to 10000 nM
CC50 at 3 days [1]: 10 to 20 µM

CC(C)Oc1nc(N)nc2ccc(-c3ccc(F)cc3F)cc12 [Example 74, 6-(2,4-Difluoro-phenyl)-4-isopropoxy-quinazolin-2-ylamine]
EC50 (HCV replicon): 1000 to 10000 nM
CC50 at 3 days [1]: 10 to 20 µM

CC(C)Oc1nc(N)nc2ccc(-c3cccc(F)c3F)cc12 [Example 75]
EC50 (HCV replicon): 300 to 1000 nM
CC50 at 3 days [1]: > 20 µM

CC(C)Oc1nc(N)nc2ccc(-c3cccc(C(F)(F)F)c3)cc12 [Example 76, 4-Isopropoxy-6-(3-trifluoromethyl-phenyl)-quinazolin-2-ylamine]
EC50 (HCV replicon): 1000 to 10000 nM
CC50 at 3 days [1]: > 20 µM

CC(C)Oc1nc(N)nc2ccc(-c3ccccc3C(F)(F)F)cc12 [Example 77, 4-Isopropoxy-6-(2-trifluoromethyl-phenyl)-quinazolin-2-ylamine]
EC50 (HCV replicon): 1000 to 10000 nM
CC50 at 3 days [1]: 10 to 20 µM

CC(C)Oc1nc(N)nc2ccc(-c3ccc(Cl)cc3)cc12 [Example 78, 4-Isopropoxy-6-(4-chloro-phenyl)-quinazolin-2-ylamine]
EC50 (HCV replicon): 1000 to 10000 nM
CC50 at 3 days [1]: > 20 µM

Cc1ccc(-c2ccc3nc(N)nc(OC(C)C)c3c2)cc1 [Example 79, 4-Isopropoxy-6-p-tolyl-quinazolin-2-ylamine]
EC50 (HCV replicon): 1000 to 10000 nM
CC50 at 3 days [1]: > 20 µM
